Reference: ChEMBL document CHEMBL4177690, “(E)-3-(3,4,5-Trimethoxyphenyl)-1-(pyridin-4-yl)prop-2-en-1-one, a heterocyclic chalcone is a potent and selective CYP1A1 inhibitor and cancer chemopreventive agent” (Bioorg Med Chem Lett, 2017)

Columns and labels:
Cytochrome P450 2C19 = Cytochrome P450 2C19 (Homo sapiens, UniProt P33261); assay: Inhibition of recombinant human CYP2C19 expressed in HEK293 cells using 3-cyano-7-ethoxycoumarin as substrate pretreated for 30 mins followed by substrate addition measured for 60 mins by fluorescence assay; format: ADME
Chain of Cytochrome P450 2C19 (P33261 whole entry): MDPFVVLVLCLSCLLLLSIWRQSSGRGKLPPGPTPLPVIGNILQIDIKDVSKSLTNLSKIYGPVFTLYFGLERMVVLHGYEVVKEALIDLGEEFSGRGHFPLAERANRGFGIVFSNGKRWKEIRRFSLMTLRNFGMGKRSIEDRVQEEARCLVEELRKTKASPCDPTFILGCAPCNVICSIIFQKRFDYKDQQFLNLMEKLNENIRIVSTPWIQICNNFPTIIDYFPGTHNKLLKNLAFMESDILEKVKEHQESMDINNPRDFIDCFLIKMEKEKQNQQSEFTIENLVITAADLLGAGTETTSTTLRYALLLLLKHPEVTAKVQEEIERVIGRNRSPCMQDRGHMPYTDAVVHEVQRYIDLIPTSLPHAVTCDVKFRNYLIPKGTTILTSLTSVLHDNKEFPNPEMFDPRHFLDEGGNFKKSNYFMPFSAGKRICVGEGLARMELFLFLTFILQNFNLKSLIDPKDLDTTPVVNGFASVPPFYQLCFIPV

Cytochrome P450 2A6 = target: T1, Cytochrome P450 2A6 (Homo sapiens, UniProt P11509); assay: Inhibition of human CYP2A6 expressed in yeast cells; format: ADME, cell-based
T1 sequence (P11509 whole entry): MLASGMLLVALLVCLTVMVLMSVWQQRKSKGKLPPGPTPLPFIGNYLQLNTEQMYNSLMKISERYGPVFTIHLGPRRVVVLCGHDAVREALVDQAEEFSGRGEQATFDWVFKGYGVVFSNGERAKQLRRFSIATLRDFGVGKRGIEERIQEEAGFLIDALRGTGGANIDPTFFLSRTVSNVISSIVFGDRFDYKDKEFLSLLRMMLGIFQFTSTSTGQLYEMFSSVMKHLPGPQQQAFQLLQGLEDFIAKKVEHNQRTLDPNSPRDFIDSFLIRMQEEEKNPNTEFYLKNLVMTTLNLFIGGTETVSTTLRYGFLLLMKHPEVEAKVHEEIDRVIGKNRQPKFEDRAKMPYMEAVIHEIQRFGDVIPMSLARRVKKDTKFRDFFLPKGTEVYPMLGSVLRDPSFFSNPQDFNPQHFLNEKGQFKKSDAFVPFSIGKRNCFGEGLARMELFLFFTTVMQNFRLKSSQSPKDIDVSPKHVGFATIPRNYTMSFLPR

Cytochrome P450 2C9 = Cytochrome P450 2C9 (Homo sapiens, UniProt P11712); assay: Inhibition of human CYP2C9 expressed in yeast microsomal membranes using 3-cyano-7-ethoxycoumarin as substrate measured after 10 mins by fluorescence assay; format: ADME, cell membranes, Microsomal Membrane
Chain of Cytochrome P450 2C9 (P11712 whole entry): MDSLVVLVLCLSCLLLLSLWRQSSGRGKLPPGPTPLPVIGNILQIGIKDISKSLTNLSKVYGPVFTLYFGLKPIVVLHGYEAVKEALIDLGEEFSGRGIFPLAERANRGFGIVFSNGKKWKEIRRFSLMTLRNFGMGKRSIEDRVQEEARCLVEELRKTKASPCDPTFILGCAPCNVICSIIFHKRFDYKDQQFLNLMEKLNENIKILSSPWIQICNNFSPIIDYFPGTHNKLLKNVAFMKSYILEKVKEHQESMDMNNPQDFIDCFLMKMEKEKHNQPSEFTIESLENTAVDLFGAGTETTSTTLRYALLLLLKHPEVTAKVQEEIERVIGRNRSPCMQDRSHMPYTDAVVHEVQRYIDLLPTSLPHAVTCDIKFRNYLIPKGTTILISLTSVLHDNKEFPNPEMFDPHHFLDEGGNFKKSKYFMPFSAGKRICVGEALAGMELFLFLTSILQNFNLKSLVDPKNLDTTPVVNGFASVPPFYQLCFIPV

Cytochrome P450 1B1 = target: T2, Cytochrome P450 1B1 (Homo sapiens, UniProt Q16678); assay: Inhibition of human CYP1B1 expressed in yeast microsomal membranes using 7-ethoxyresorufin as substrate measured after 10 mins by fluorescence assay; format: cell membranes
T2 sequence (Q16678 whole entry): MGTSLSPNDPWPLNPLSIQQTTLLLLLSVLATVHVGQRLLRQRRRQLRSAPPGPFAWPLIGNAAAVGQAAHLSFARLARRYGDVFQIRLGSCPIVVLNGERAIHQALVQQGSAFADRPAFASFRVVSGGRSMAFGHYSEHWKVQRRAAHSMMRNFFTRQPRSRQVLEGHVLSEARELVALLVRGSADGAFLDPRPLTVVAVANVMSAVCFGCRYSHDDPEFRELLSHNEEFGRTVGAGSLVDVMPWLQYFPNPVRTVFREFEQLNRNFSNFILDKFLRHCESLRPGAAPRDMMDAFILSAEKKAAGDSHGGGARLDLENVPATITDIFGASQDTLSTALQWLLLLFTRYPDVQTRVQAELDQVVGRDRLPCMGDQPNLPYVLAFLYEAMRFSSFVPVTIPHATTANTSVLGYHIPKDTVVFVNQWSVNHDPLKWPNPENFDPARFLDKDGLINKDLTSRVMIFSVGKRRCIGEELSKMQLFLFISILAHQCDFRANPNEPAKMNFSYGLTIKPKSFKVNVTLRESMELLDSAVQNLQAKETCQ

Cytochrome P450 3A4 = Cytochrome P450 3A4 (Homo sapiens, UniProt P08684); assay: Inhibition of human CYP3A4 expressed in yeast microsomal membranes using dibenzylfluorescein as substrate measured after 10 mins by fluorescence assay; format: ADME, cell membranes, Microsomal Membrane
Chain of Cytochrome P450 3A4 (P08684 whole entry): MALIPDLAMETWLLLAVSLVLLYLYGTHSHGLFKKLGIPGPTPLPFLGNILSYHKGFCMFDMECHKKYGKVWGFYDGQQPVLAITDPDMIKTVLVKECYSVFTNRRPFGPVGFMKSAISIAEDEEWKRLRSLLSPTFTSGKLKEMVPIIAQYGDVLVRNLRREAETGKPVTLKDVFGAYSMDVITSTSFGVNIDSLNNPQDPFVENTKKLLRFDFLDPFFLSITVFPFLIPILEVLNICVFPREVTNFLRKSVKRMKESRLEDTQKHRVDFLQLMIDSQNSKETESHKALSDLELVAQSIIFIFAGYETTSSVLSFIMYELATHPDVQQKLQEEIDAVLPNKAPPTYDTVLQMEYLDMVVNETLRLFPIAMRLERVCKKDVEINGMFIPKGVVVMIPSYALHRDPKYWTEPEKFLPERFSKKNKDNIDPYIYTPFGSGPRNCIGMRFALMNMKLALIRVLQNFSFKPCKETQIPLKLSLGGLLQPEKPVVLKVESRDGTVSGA

Cytochrome P450 1A2 = target: T3, Cytochrome P450 1A2 (Homo sapiens, UniProt P05177); assay: Inhibition of human CYP1A2 expressed in yeast cells; format: ADME, cell-based
T3 sequence (P05177 whole entry): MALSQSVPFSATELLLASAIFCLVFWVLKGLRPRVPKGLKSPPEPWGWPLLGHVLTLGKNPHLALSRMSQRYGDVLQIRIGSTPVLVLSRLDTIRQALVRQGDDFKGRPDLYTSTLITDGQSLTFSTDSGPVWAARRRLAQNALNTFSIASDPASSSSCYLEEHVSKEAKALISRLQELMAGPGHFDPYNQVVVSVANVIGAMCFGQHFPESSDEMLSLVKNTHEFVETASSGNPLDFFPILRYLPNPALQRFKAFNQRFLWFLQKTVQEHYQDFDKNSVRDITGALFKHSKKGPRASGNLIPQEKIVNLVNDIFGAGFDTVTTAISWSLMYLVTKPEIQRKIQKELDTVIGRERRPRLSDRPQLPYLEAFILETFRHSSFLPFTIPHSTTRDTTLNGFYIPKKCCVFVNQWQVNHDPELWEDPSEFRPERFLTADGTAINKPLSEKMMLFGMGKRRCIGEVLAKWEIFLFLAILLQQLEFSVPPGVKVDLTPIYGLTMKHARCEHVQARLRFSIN

Homo sapiens [1] = species: Homo sapiens; assay: Selectivity ratio of IC50 for human CYP1B1 expressed in yeast microsomal membranes to IC50 for human CYP1A1 expressed in yeast microsomal membranes; format: cell membranes
Cytochrome P450 2D6 = Cytochrome P450 2D6 (Homo sapiens, UniProt P10635); assay: Inhibition of human CYP2D6 expressed in yeast microsomal membranes using 7-ethoxy-methyloxy-3-cyanocoumarin as substrate measured after 10 mins by fluorescence assay; format: ADME, cell membranes, Microsomal Membrane
Chain of Cytochrome P450 2D6 (P10635 whole entry): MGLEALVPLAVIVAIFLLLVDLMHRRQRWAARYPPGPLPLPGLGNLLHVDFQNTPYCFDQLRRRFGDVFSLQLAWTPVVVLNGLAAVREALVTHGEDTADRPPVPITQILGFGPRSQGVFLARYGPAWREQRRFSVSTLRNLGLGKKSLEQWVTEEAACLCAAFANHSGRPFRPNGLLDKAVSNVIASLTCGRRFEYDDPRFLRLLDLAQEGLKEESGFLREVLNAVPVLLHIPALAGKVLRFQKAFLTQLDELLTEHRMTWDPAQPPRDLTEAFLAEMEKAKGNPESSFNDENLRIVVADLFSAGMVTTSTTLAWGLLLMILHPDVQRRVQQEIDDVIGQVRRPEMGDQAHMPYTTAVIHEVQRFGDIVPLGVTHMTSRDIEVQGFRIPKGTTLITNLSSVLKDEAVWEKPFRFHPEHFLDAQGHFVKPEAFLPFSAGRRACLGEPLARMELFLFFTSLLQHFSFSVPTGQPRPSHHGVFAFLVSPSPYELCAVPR

Cytochrome P450 2C8 = target: T4, Cytochrome P450 2C8 (Homo sapiens, UniProt P10632); assay: Inhibition of human CYP2C8 expressed in yeast cells; format: ADME, cell-based
T4 sequence (P10632 whole entry): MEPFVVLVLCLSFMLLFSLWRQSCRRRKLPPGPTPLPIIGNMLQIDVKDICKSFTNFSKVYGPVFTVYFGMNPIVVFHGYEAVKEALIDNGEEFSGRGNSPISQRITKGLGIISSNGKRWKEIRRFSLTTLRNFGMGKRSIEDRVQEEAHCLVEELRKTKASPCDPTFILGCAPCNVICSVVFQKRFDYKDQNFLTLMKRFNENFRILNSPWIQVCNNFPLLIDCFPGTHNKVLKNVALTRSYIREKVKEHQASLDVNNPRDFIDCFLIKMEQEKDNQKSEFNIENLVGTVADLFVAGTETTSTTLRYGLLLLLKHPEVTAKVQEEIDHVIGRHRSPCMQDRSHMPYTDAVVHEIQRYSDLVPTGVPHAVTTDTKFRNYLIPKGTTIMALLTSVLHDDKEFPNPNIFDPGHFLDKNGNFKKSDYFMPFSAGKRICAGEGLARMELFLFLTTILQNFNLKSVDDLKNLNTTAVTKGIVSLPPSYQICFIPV

Homo sapiens [2] = species: Homo sapiens; assay: Selectivity ratio of IC50 for recombinant human CYP3A4 to IC50 for recombinant human CYP1A1

For `COc1cc(/C=C/C(=O)c2ccncc2)cc(OC)c1OC`, which IC50 (Cytochrome P450 2C19) is on record?
Its IC50 is over 10 µM.

What about the IC50 (Cytochrome P450 2A6) of the same compound?
Its IC50 is over 10 µM.

And the IC50 (Cytochrome P450 2C9)?
The IC50 was over 20 µM.

And the IC50 (Cytochrome P450 1B1)?
The IC50 was 5.21 µM.

What about the IC50 (Cytochrome P450 3A4) of the same compound?
Its IC50 is over 20 µM.

What about the IC50 (Cytochrome P450 1A2) of the same compound?
Its IC50 is 1.82 µM.

What about the Ratio IC50 (Homo sapiens [1]) of the same compound?
The Ratio IC50 was over 10.

And the IC50 (Cytochrome P450 2D6)?
The IC50 was 5 µM.

And the IC50 (Cytochrome P450 2C8)?
The IC50 was 8.92 µM.

What about the Ratio IC50 (Homo sapiens [2]) of the same compound?
Its Ratio IC50 is over 100.
